From patent publication US20090170869A1, “PIPERAZINE DERIVATIVE HAVING AFFINITY FOR THE HISTAMINE H3 RECEPTOR” (priority 2007, published 2009)
Counter-ions that a name gives are not always drawn.

Key:
[1] = Preliminary HCl-salt-formation and crystallisation experiments (crystal form stability); assay type: physicochemical; settings: hydrochloride salt crystal forms; without being bound by theory
Text: Crystalline Form 1 (or a predominance of crystalline Form 1) is often formed initially depending on the conditions, but, depending on the conditions (such as the type of solvent and the solubility of crystalline Form 1 in it, and/or the temperature and/or temperature time course, and/or the contact time of the crystalline Form 1 with the solvent), the crystalline Form 1 can then often convert to crystalline Form 2 to a greater or lesser extent when in contact with a suitable solvent i.e. a solvent suitable for converting crystalline Form 1 to crystalline Form 2.

rats = settings: at certain oral doses; passive avoidance, water maze, object recognition, attentional set shift; Medhurst et al. 2007; cited from earlier work
histamine H3 receptor = biological target: T1, histamine H3 receptor (Rattus norvegicus, UniProt Q9QYN8); settings: following oral administration to the rat; Medhurst et al. 2007; cited from earlier work
T1 construct: host or cells: rat cortex

rodent models = settings: five choice task, object recognition, elevated plus maze, acquisition of novel task, passive avoidance; literature reports; cited from earlier work
H3 receptor = H3 receptor (Sus scrofa, UniProt A0A287B9V8); test: Pig-PET study with [11C]GSK189254: pig brain H3 receptor occupancy over time and kon-koff limited model; settings: 50 micrograms/kg i.v.; for Measured H3 receptor occupancy @ 10 min: 10 minutes post administration; for Measured H3 receptor occupancy @ 2.5 h: 2.5 hours post administration; for Measured H3 receptor occupancy @ 6 h: 6 hours post administration; for Kd: Kd (koff/kon); for koff: iv; for koff / kon: Salt B
[2] = Plasma clearance in the pig-PET study; assay type: in vivo; settings: Yorkshire-Landrace, iv, 50 ug/kg, 50 micrograms/kg i.v.
[3] = biological target: T2, brain histamine H3 receptor (Rattus norvegicus, UniProt Q9QYN8); test: Rat ex vivo binding studies - rat brain histamine H3 receptor occupancy ([3H]-R-α-methylhistamine); assay type: in vivo; settings: for inhibition of [3H]-R-α-methylhistamine specific binding to the H3 receptor (surrogate for rat brain H3 receptor occupancy): 10 mg/kg oral; for specific binding of [3H]-R-α-methylhistamine to the H3 receptor: rats n=3, 10 mg/kg oral, mean ± SEM
T2 construct: from tissue; host or cells: cerebral cortex homogenate of adult male Lister hooded rats
Description: Ex vivo binding studies were carried out to determine brain histamine H3 receptor occupancy in rats at certain time points after oral administration of a test compound.
Adult male rats (Lister hooded 200-250 g, Charles River, UK) received vehicle (1% w/v aqueous methylcellulose) (control) or the test compound (10 mg/kg) by oral gavage (n=3 per group) and were sacrificed 1 or 4 hours following oral dosing. The 1 hour and 4 hour studies were not necessarily done on the same day. Terminal blood samples were collected and brains rapidly removed. Cerebral cortex tissue was dissected from half of each brain for ex vivo binding; the other half brain can be used for pharmacokinetic analysis of brain concentrations of each compound. All dissected tissue samples were snap-frozen in liquid nitrogen, and stored at −80° C. until use. The tissues were rapidly thawed and homogenised in approximately 30 volumes of ice cold assay reaction buffer. The assay reaction buffer contained 50 mM Tris-HCl (made up using Trizma pre-set crystals pH 7.7 @25° C., Sigma cat. No. T8068-250G) and 5 mM EDTA, with a final buffer pH of 7.2 to 7.8, usually about 7.4. The crude homogenate (600-800 μg/well) was then used to measure H3 receptor binding using [^3H]-R-α-methylhistamine as radioligand. Assays measuring total binding of [^3H]-R-α-methylhistamine consisted of 50 μl assay reaction buffer, 400 μl of homogenate (corresponding to 600-800 μg/well) and 50 μl of 2 nM R(−)α-Methyl[imidazole-2,5(n)-3H]histamine dihydrochloride ([^3H]-R-α-methylhistamine; specific activity, 24 Ci mmol^−1, Amersham Biosciences, catalogue no. TRK1017). Incubations with [^3H]-R-α-methylhistamine were for 45 min at 30° C. Non-specific binding of [^3H]-R-α-methylhistamine was determined in parallel using the same assay except that 50 μl of 10 μM imetit (an H3 receptor agonist, e.g. available from Tocris) was used instead of the 50 μl of assay reaction buffer. The experiments were terminated by rapid filtration through Whatman GF/B filters (pre-soaked in 0.3% v/v polyethyleneimine (PEI)), and then the filters were washed through with 4×5 ml of ice cold harvesting buffer. The harvesting buffer contained 50 mM Tris-HCl (from Trizma pre-set crystals pH 7.7 @ 25° C.) and 5 mM MgCl2, with a final buffer pH of 7.2 to 7.8, usually about 7.4. Filters were dried and added to vials each containing 4 ml Ultima Gold MV scintillation fluid (Hewlett Packard) and radioactivity determined by liquid scintillation spectrometry using a Packard Tri-Carb 2500TR liquid scintillation counter.
Specific binding of [^3H]-R-α-methylhistamine to the H3 receptor was determined by the subtraction of the value obtained for non-specific binding from the value obtained for total binding.
Protein concentrations were determined using the Bradford assay method (Bio-Rad
Protein Assay Dye Reagent Concentrate, catalogue no. 500-0006; from Bio-Rad Laboratories GmbH, Heidemannstrasse 164, 80939 Muenchen, Germany; or from Bio-Rad, York, UK) with bovine serum albumin as a standard. Specific radioactivity in the samples was corrected for protein (i.e. per microgram of protein).
The specific binding of [^3H]-R-α-methylhistamine to the H3 receptor is expressed as a mean (n=3 rats)±SEM (standard error of the mean), as a percentage of vehicle-treated control animals. Data is also expressed as inhibition of [^3H]-R-α-methylhistamine specific binding to the H3 receptor, as a surrogate measure for H3 receptor occupancy by the test compound, calculated as 100% minus the % mean specific binding of [^3H]-R-α-methylhistamine to the H3 receptor.

[4] = mean ± standard deviation, n=3 pigs
[5] = average model (from average plasma data and average occupancy)

T2 sequence (Q9QYN8 whole entry): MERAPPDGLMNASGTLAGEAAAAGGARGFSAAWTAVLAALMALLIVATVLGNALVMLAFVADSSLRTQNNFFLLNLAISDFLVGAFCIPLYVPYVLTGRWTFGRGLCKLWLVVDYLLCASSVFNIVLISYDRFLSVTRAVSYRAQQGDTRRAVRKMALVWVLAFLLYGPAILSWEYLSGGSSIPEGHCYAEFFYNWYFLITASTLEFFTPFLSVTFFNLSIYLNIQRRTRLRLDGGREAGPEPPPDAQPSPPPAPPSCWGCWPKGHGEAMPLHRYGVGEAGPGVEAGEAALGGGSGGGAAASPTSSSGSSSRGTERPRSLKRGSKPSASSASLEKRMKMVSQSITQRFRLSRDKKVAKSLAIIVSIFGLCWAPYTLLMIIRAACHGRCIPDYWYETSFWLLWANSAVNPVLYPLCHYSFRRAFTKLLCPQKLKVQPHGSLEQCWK
Sequence of H3 receptor (A0A287B9V8 1-448): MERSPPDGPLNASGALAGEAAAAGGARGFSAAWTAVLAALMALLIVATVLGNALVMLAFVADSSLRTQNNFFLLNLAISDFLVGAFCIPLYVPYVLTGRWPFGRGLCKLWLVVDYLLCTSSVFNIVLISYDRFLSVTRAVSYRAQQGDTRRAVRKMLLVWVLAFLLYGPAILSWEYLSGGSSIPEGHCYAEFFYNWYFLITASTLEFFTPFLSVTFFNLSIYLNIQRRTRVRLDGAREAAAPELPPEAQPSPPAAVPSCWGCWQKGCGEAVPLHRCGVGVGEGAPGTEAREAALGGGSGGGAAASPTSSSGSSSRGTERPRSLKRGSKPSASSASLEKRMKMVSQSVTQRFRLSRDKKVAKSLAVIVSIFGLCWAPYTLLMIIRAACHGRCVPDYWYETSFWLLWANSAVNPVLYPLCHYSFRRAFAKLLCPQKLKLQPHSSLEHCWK
T1 sequence (Q9QYN8 whole entry): as the sequence (Q9QYN8 whole entry) above

CC(C)N1CCN(C(=O)c2ccc(OC3CCOCC3)cc2)CC1 [Example 3]
thermodynamic stability relative to crystalline Form 1 [1]: more thermodynamically stable than crystalline Form 1

CNC(=O)c1ccc(Oc2ccc3c(c2)CCN(C2CCC2)CC3)nc1 [GSK189254]
performance of rats in cognition paradigms (rats): improved performance | [3H]R-α-methylhistamine ex vivo binding in the rat cortex (histamine H3 receptor): inhibited

CC(C)(C)CCC#C[C@@H]1C[C@H]1c1c[nH]cn1 [GT-2331]
cognitive effect in rodent models (rodent models): cognitive enhancing properties

CC(C)N1CCCN(C(=O)c2ccc(OC3CCOCC3)cc2)CC1 [Salt B, reference compound]
Measured H3 receptor occupancy @ 10 min (H3 receptor; [4]): 63% ± 10% | Measured H3 receptor occupancy @ 10 min (H3 receptor; pig 1): 51% | Measured H3 receptor occupancy @ 10 min (H3 receptor; pig 2): 69% | Measured H3 receptor occupancy @ 10 min (H3 receptor; pig 3): 68% | Measured H3 receptor occupancy @ 2.5 h (H3 receptor; [4]): 37% ± 16% | Measured H3 receptor occupancy @ 2.5 h (H3 receptor; pig 1): 19% | Measured H3 receptor occupancy @ 2.5 h (H3 receptor; pig 2): 49% | Measured H3 receptor occupancy @ 2.5 h (H3 receptor; pig 3): 43% | Measured H3 receptor occupancy @ 6 h (H3 receptor; [4]): 33% ± 4% | Measured H3 receptor occupancy @ 6 h (H3 receptor; pig 1): 30% | Measured H3 receptor occupancy @ 6 h (H3 receptor; pig 2): 32% | Measured H3 receptor occupancy @ 6 h (H3 receptor; pig 3): 38% | Kd (H3 receptor; [5]): 5.2 nM | Kd (H3 receptor; mean of pigs 1-3): 4.76 nM | Kd (H3 receptor; pig 1, in vivo PK/RO model): 5.6 nM | Kd (H3 receptor; pig 2, in vivo PK/RO model): 5.05 nM | Kd (H3 receptor; pig 3, in vivo PK/RO model): 3.61 nM | koff (H3 receptor; PIG1, pig, pig 1, estimated model parameter): 5.5e-05 s⁻¹ | kon (H3 receptor; [5]): 0.0025 min⁻¹ | kon (H3 receptor; mean of pigs 1-3): 0.0024 min⁻¹ | kon (H3 receptor; pig 1, estimated model parameter): 0.0017 min⁻¹ | kon (H3 receptor; pig 2, estimated model parameter): 0.0024 min⁻¹ | kon (H3 receptor; pig 3, estimated model parameter): 0.0031 min⁻¹ | koff (H3 receptor; pig, average model (from average plasma data and average occupancy)): 7.5e-05 s⁻¹ | koff (H3 receptor; pig, mean of pigs 1-3): 6.33e-05 s⁻¹ | koff (H3 receptor; pig, pig 2, estimated model parameter): 7e-05 s⁻¹ | koff (H3 receptor; pig, pig 3, estimated model parameter): 6.5e-05 s⁻¹ | clearance ([2]; average model (from average plasma data)): 48.3 mL/min | clearance ([2]; mean of pigs 1-3): 46.7 mL/min | clearance ([2]; pig 1): 60 mL/min | clearance ([2]; pig 2): 30 mL/min | clearance ([2]; pig 3): 46.7 mL/min | inhibition of [3H]-R-α-methylhistamine specific binding to the H3 receptor (surrogate for rat brain H3 receptor occupancy) ([3]; 1 hour after dosing): about 60% | inhibition of [3H]-R-α-methylhistamine specific binding to the H3 receptor (surrogate for rat brain H3 receptor occupancy) ([3]; 4 hours after dosing): about 12% | specific binding of [3H]-R-α-methylhistamine to the H3 receptor ([3]; sacrificed 1 hour after dosing): 40%+4% | specific binding of [3H]-R-α-methylhistamine to the H3 receptor ([3]; sacrificed 4 hours after dosing): 88%+6%

O=C(c1ccc(OCCCc2cnc[nH]2)cc1)C1CC1 [ciproxifan]
cognitive effect in rodent models (rodent models): cognitive enhancing properties

NC(=NCc1ccc(Cl)cc1)SCCCc1cnc[nH]1 [clobenpropit]
cognitive effect in rodent models (rodent models): cognitive enhancing properties

S=C(NC1CCCCC1)N1CCC(c2cnc[nH]2)CC1 [thioperamide]
cognitive effect in rodent models (rodent models): cognitive enhancing properties
